Assay results published in ChEMBL document CHEMBL1240370, “Effects of immunomodulatory and organism-associated molecules on the permeability of an in vitro blood-brain barrier model to amphotericin B and fluconazole” (Antimicrob Agents Chemother, 2010).

Experiments:
Format in all cases: ADME, cell-based, Bos taurus
Conditions in all cases: cattle, c6, 24 h
[1] = Permeability across BBMEC cocultured with rat C6 cell BBB model after 24 hrs in presence of 0.1 ug/ml interleukin-2
[2] = Permeability across BBMEC cocultured with rat C6 cell BBB model after 24 hrs in presence of 0.1 ug/ml lipopolysaccharide
[3] = Permeability across BBMEC cocultured with rat C6 cell BBB model after 24 hrs in presence of 0.1 ug/ml lipoteichoic acid
[4] = Permeability across BBMEC cocultured with rat C6 cell BBB model after 24 hrs in presence of 0.01 ug/ml TNF
[5] = Permeability across BBMEC cocultured with rat C6 cell BBB model after 24 hrs in presence of 1 ug/ml Dexamethasone
[6] = Permeability across BBMEC cocultured with rat C6 cell BBB model after 24 hrs in presence of 0.01 ug/ml tacrolimus-506
[7] = Permeability across BBMEC co-cultured with rat C6 cell BBB model after 24 hrs in presence of 0.01 ug/ml interleukin-1
[8] = Permeability across BBMEC cocultured with rat C6 cell BBB model after 24 hrs in presence of 0.1 ug/ml tacrolimus-506
[9] = Permeability across BBMEC cocultured with rat C6 cell BBB model after 24 hrs in presence of 1 ug/ml lipopolysaccharide
[10] = Permeability across BBMEC cocultured with rat C6 cell BBB model after 24 hrs in presence of 0.1 ug/ml TNF
[11] = Permeability across BBMEC cocultured with rat C6 cell BBB model after 24 hrs in presence of 0.1 ug/ml Dexamethasone

Measured: permeability

OC(Cn1cncn1)(Cn1cncn1)c1ccc(F)cc1F [FLUCONAZOLE]
permeable: all assays above
